The results in this text go back to patent publication US6232348A, “Hydroxymethyl derivatives of 2-amino-1,2,3,4-tetrahydronaphthalene as cardiovascular agent” (Zambon Group S.p.A., priority 1997, dated 2001).

The test system of one data set is D1. Kind of data set: D1 activity on the rabbit splenic artery (RSA). To be noted: rings contracted with U46619; agonistic activity at the peak of the effect; cumulative administration. As for the experimental part:
Evaluation of the D1 Activity on the Rabbit Splenic Artery (RSA)
Artery rings were prepared according to Semeraro et al., Naunyn. Schnied. Arch. Pharmacol., 1990, 342, 539. These were contracted with U46619 (9,11-dideoxy-11α,9α -epoxy-methanprostaglandine F2α) at a submaximal concentration of […]. The tested compounds were cumulatively administered.
As reference compound (S)-N-propyl-N-{6-[2-(2-methoxyphenoxy)-ethylamino]-hexyl}-5,6-dihydroxy-1,2,3,4-tetrahydro-2-naphthylamine dihydrochloride (Ref. A), described in example 6 of the international patent application No. WO 93/19036 was employed. Furthermore a compound of the invention was compared with its corresponding compound having in 5-position a hydroxy group in the place of a hydroxymethyl group. i.e. Compound 22 of the international patent application No. WO 96/08228, (S)-N-propyl-N-{6-[2-(4-methylsulfonylphenyl)-ethylamino]hexyl}-5,6-dihydroxy-1,2,3,4-tetrahydro-2-naphthylamine dihydrobromide (Ref. B). The agonistic activity was evaluated at the peak of the effect and expressed as potency ratio (EC50 of Ref. A/EC50 of the tested compound), as shown in Table 1.

For a further data set, the system named is D2. Briefly: D2 activity in the rabbit ear artery (REA). More on the design: species or system New Zealand rabbit. To be noted: electrically stimulated artery rings; agonistic activity at the peak of the effect; cumulative administration. As for the experimental part:
Evaluation of the D2 Activity in the Rabbit Ear Artery (REA)
Artery rings were prepared following the method described by Steinsland et al., Science, 1978, 443, 199, modified as follows.
Male New Zealand rabbits (weighing 2.5-3 Kg) were sacrificed by a pentobarbital intravenous injection and bled. The central ear artery was cut into 3 mm-rings. The samples were placed into a 25 ml-bath containing a Krebs solution (mM/l): sodium chloride 118, potassium chloride 4.7, calcium chloride 2.5, magnesium sulphate 1.2, sodium hydrogenocarbonate 25, potassium biphosphate 1.2, glucose 11.1, balanced with oxygen 95%/carbon dioxide 5% and maintained at 35±1° C. The Krebs solution was added with EDTA (10 μM) to present the cathecolamine oxidation, with desipramine (0.1 μM) and corticosterone (30 μM) to stop the neuronal and extraneuronal cathecolamine re-uptake.
The samples were electrically stimulated (10 Hz, 1 msec., 40-80 mA, 500 msec long) at intervals of 5 minutes.
The tested compounds were cumulatively administered.
As reference compounds the reference compounds A and B above were employed.
The agonistic activity was evaluated at the peak of the effect and expressed as potency ratio (EC50 of Ref. A/EC50 of the tested compound), as shown in Table 1.

A short description of data set [1]: Hypotensive activity in the anaesthetized dog. In kind it is in vivo. Particulars: intraduodenal (oral) administration, anaesthetized Beagle dogs; 184 nmoles/kg (compound of the invention), 5.52 nmoles/kg (Ref. B), doses equally active i.v.; 0-360 min. On the procedure:
Evaluation of the Hypotensive Activity in the Dog
Beagle dogs were anhaestetized with sodium pentobarbital (30 mg/kg i.v.) and a catheter was put in their carotid artery to measure the blood pressure. The catheter was connected with a pressure transductor. The compounds were administered by a catheter put in the duodenum. The effect on the average blood pressure is expressed as average effect with respect to the test time (Eavg =AUC0-360 /minutes) according to what described by Fettner S. H. et al., Eur. J. Clin. Pharmacol., 48:351-359, 1995. As reference compound the reference compound B above (Ref. B) was used. The controls were treated with the vehicle only.
The doses used for the oral administration were selected on the basis of the hypotensive activity data obtained after intravenous administration.

A short description of data set [2]: Absolute oral bioavailability in the dog. To be noted: Beagle dogs (4), 1 mg/kg oral by gavage vs 0.2 mg/kg bolus, domperidone pretreatment. In kind it is in vivo. As for the experimental part: Evaluation of the Absolute Oral Bioavailability
Four Beagle dogs were intramuscularly treated with 20 mg of domperidone (to avoid emesis) and, after 60 minutes, with a bolus of 0.2 mg/kg of a solution of the compound of example 13. The solution of this compound was prepared by dissolving 10 mg thereof in 100 μl of ethanol and 380 μl of 0.1N HCl, the resulting solution being brought to 10 ml with water. Appropriate volumes of this solution were administered to obtain the desired dose based on the dog weight.
Venous blood sample (3 ml) were collected before drug administration and the following times after dosing: 2.5, 5, 10, 15, 20, 30, 45, 60, 90, 120, 180, 240, 300 and 360 minutes.
After a washout period of 7 days, the same 4 Beagle dogs were intramuscularly treated with 20 mg of domperidone and, after 60 minutes, orally treated by gavage with the compound of Example 13 at the dose of 1 mg/kg. […]
The following pharmacokinetic parameters were determined by non-compartmental analysis from the individual plasma concentration of the compound of Example 13: […]
AUC(()-t), the area under the plasma concentration-time curve between time zero and the last concentration observed, estimated by the linear trapezoidal rule; Absolute bioavailability (F), the percentage of oral dose that is systemically available, calculated according to the following equation: [formula] […]

In the case of `CCCN(CCCCCCNCCOc1ccccc1OC)[C@H]1CCc2c(ccc(O)c2O)C1.Cl.Cl` [Ref. A, (S)-N-propyl-N-{6-[2-(2-methoxyphenoxy)-ethylamino]-hexyl}-5,6-dihydroxy-1,2,3,4-tetrahydro-2-naphthylamine dihydrochloride], the “D1 activity (RSA), potency ratio (EC50 of Ref. A/EC50 of the tested compound)” value (“D1 activity (RSA), potency ratio” for short) in the data set with D1 came to 1. Besides, the “D2 activity (REA), potency ratio (EC50 of Ref. A/EC50 of the tested compound)” value (shortened to “D2 activity (REA), potency ratio”) with D2 is reported as 1.

What is called bioavailability is dose-corrected exposure relative to a reference, in per cent. Regarding `CCCN(CCCCCCNCCc1ccc(S(C)(=O)=O)cc1)[C@H]1CCc2c(ccc(O)c2CO)C1` [Example 7, (S)-N-propyl-N-(6-(2-(4-methylsulfonylphenyl)ethylamino)hexyl)-5-hydroxymethyl-6-hydroxy-1,2,3,4-tetrahydro-2-naphthylamine], in data set [1], the “average effect on blood pressure (Eavg = AUC0-360/minutes)” value is listed as -17.4±3.0 mmHg. In the data set on D1, the “D1 activity (RSA), potency ratio” value was determined as 2.5. Further, the “D2 activity (REA), potency ratio” value in the data set with D2 came out at 1.25. The “Absolute oral bioavailability (F)” value in data set [2] (listed as Example 13, 1 mg/kg) was 28-43%. Also, in data set [2] (dog, plasma, po, 1 mg/kg, read-out: Absolute oral bioavailability (F)), the bioavailability came to 38.8 ± 7.2%.

Take `Br.Br.CCCN(CCCCCCNCCc1ccc(S(C)(=O)=O)cc1)[C@H]1CCc2c(ccc(O)c2O)C1` [Ref. B, (S)-N-propyl-N-{6-[2-(4-methylsulfonylphenyl)-ethylamino]hexyl}-5,6-dihydroxy-1,2,3,4-tetrahydro-2-naphthylamine dihydrobromide]: the “average effect on blood pressure (Eavg = AUC0-360/minutes)” value in data set [1] is given as -3.5±3.9 mmHg. For the same compound, the “D1 activity (RSA), potency ratio” value in the data set with D1 stood at 50. Moreover, in the data set on D2, the “D2 activity (REA), potency ratio” value is given as 3.3.
